Source: ChEMBL document CHEMBL1201862, “PubChem BioAssay data set” (2004)
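These data come from cells grown in 96-well plates and exposed to compound for 48 hours at five concentrations. GI50: concentration for 50% inhibition of growth.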 The source made the active and inactive calls. Cut-off read from the data, not from the text of the source: active = GI50 up to about 1.1 µM and inactive = higher.

Assays:
Test in all cases: DTP human tumour cell line panel, 48 h
[1] = tested on: NCI-H522
[2] = tested on: LOX IMVI
[3] = tested on: A549
[4] = tested on: LXFL 529
[5] = tested on: SF-268
[6] = tested on: SNB-19
[7] = tested on: U-251
[8] = tested on: MOLT-4
[9] = tested on: CAKI-1
[10] = tested on: KM12
[11] = tested on: DLD-1
[12] = tested on: HT-29
[13] = tested on: SR
[14] = tested on: M19-MEL
[15] = tested on: SK-MEL-5
[16] = tested on: HCT-15
[17] = tested on: CCRF-CEM
[18] = tested on: COLO 205

| SMILES | GI50 [1] | GI50 [2] | GI50 [3] | GI50 [4] | GI50 [5] | GI50 [6] | GI50 [7] | GI50 [8] | GI50 [9] | GI50 [10] | GI50 [11] | GI50 [12] | GI50 [13] | GI50 [14] | GI50 [15] | GI50 [16] | GI50 [17] | GI50 [18] |
| --- | --- | --- | --- | --- | --- | --- | --- | --- | --- | --- | --- | --- | --- | --- | --- | --- | --- | --- |
| CN(C(=O)C12C3C4C1C1C4(C(=O)C45C6C7C4C4C5C6C74C)C3C12C)C(C)(C)C (stereo not drawn) | 48.6 µM (inactive) | 48.1 µM (inactive) | 52.7 µM (inactive) | 37.8 µM (inactive) | > 100 µM (inactive) | 69.5 µM (inactive) | 79.3 µM (inactive) | 40.3 µM (inactive) | > 100 µM (inactive) | 78.7 µM (inactive) | 56.5 µM (inactive) | 17.5 µM (inactive) | 29.2 µM (inactive) | 45.9 µM (inactive) | 31.6 µM (inactive) | 28.3 µM | 32.1 µM (inactive) | 35.4 µM (inactive) |
| OCC1OC(NO)C(O)C(O)C1O (stereo not drawn) | > 100 µM (inactive) | > 100 µM (inactive) | > 100 µM (inactive) | > 100 µM (inactive) | > 100 µM (inactive) | > 100 µM (inactive) | > 100 µM (inactive) | > 100 µM (inactive) | > 100 µM (inactive) | > 100 µM (inactive) | > 100 µM (inactive) | > 100 µM (inactive) | > 100 µM (inactive) | > 100 µM (inactive) | > 100 µM (inactive) | > 100 µM | > 100 µM (inactive) | > 100 µM (inactive) |
| CCOC(=O)C(=O)/C=C(\C)Nc1c(NC2OCC(OC(C)=O)C(OC(C)=O)C2OC(C)=O)nc(SC)[nH]c1=O (stereo not drawn) | > 100 µM (inactive) | > 100 µM (inactive) | > 100 µM (inactive) | > 100 µM (inactive) | > 100 µM (inactive) | > 100 µM (inactive) | > 100 µM (inactive) | > 100 µM (inactive) | > 100 µM (inactive) | > 100 µM (inactive) | > 100 µM (inactive) | > 100 µM (inactive) | > 100 µM (inactive) | > 100 µM (inactive) | > 100 µM (inactive) | > 100 µM | > 100 µM (inactive) | > 100 µM (inactive) |
| CC[N+](CC)(CC)Cc1cc2ccccc2n1C(=O)OC | > 100 µM (inactive) |  | > 100 µM (inactive) | > 100 µM (inactive) | > 100 µM (inactive) | > 100 µM (inactive) | > 100 µM (inactive) | > 100 µM (inactive) | > 100 µM (inactive) | > 100 µM (inactive) | > 100 µM (inactive) | > 100 µM (inactive) | > 100 µM (inactive) | > 100 µM (inactive) | > 100 µM (inactive) | > 100 µM | > 100 µM (inactive) | > 100 µM (inactive) |
| CCCCCCCCCCCCCP(=O)(OC)OC | 13.6 µM (inactive) | 19.3 µM (inactive) | 21.2 µM (inactive) | 19.1 µM (inactive) |  | 20.8 µM (inactive) | 18.5 µM (inactive) | 19.1 µM (inactive) | 18 µM (inactive) | 17.5 µM (inactive) | 16.1 µM (inactive) | 18.4 µM (inactive) | 19 µM (inactive) | 19.3 µM (inactive) | 18.6 µM (inactive) | 17.7 µM | 20.8 µM (inactive) | 20 µM (inactive) |
| CCc1cccc(C)c1N1C(=O)C(=O)C(c2nc3ccccc3o2)C(=O)C1=O | > 100 µM (inactive) |  | > 100 µM (inactive) | > 100 µM (inactive) | > 100 µM (inactive) | > 100 µM (inactive) | > 100 µM (inactive) | > 100 µM (inactive) | > 100 µM (inactive) | > 100 µM (inactive) | > 100 µM (inactive) | > 100 µM (inactive) | > 100 µM (inactive) | > 100 µM (inactive) | > 100 µM (inactive) | > 100 µM | > 100 µM (inactive) | > 100 µM (inactive) |
| CN/N=C(\C)c1c(O)cc(C)oc1=O | > 100 µM (inactive) | > 100 µM (inactive) | > 100 µM (inactive) | > 100 µM (inactive) | > 100 µM (inactive) | > 100 µM (inactive) | > 100 µM (inactive) | > 100 µM (inactive) | > 100 µM (inactive) | > 100 µM (inactive) | > 100 µM (inactive) | > 100 µM (inactive) | > 100 µM (inactive) | > 100 µM (inactive) |  | > 100 µM | > 100 µM (inactive) |  |
| Nc1ccc(C(=O)N/C(=C\c2cccc([N+](=O)[O-])c2)c2nc3ccccc3[nH]2)cc1 | 36.6 µM (inactive) | > 100 µM (inactive) | 51.3 µM (inactive) | 29.4 µM (inactive) | 21.8 µM (inactive) | 40.6 µM (inactive) | 41.4 µM (inactive) | > 100 µM (inactive) | 47 µM (inactive) | > 100 µM (inactive) | 66.8 µM (inactive) | > 100 µM (inactive) | > 100 µM (inactive) | > 100 µM (inactive) | 76.4 µM (inactive) | 76.6 µM | > 100 µM (inactive) | > 100 µM (inactive) |
| CC(C)NCCNC(=O)c1ccccc1Nc1c(Cl)cccc1Cl |  | 7.24 µM (inactive) | 17.3 µM (inactive) | 16.9 µM (inactive) | 18.1 µM (inactive) | 15.3 µM (inactive) | 4.65 µM (inactive) | 8.69 µM (inactive) |  | 16.9 µM (inactive) | 13 µM (inactive) | 4.71 µM (inactive) | 9.06 µM (inactive) | 8.38 µM (inactive) | 5.04 µM (inactive) | 13 µM | 10.5 µM (inactive) | 11.6 µM (inactive) |
| O=C(O)C(C(=O)C(=O)C(C(=O)O)c1ccc(Cl)cc1)c1ccc(Cl)cc1 (stereo not drawn) | 1.88 µM (inactive) | 2.56 µM (inactive) | 2.9 µM (inactive) | 2.52 µM (inactive) | 2.9 µM (inactive) | 3.68 µM (inactive) | 3.22 µM (inactive) | 1.72 µM (inactive) | 4.13 µM (inactive) | 3.75 µM (inactive) | 3.52 µM (inactive) | 3.72 µM (inactive) | 1.91 µM (inactive) | 3.39 µM (inactive) |  |  | 2.34 µM (inactive) | 6.44 µM (inactive) |
| CCCCCCCCCCCCCC(=O)CC(=O)c1c(O)cccc1O | 22.7 µM (inactive) | 19.6 µM (inactive) | 51.1 µM (inactive) | 35.2 µM (inactive) | 61.8 µM (inactive) | 36.4 µM (inactive) | 35.6 µM (inactive) | 21.5 µM (inactive) | 34 µM (inactive) | 41.1 µM (inactive) | 41.6 µM (inactive) | 27.2 µM (inactive) |  | 30.5 µM (inactive) | > 100 µM (inactive) | 25.2 µM | 21.1 µM (inactive) | 22.5 µM (inactive) |
| CCOC(=O)c1cc(/C=C/C(C)=C/C(=O)OC)n(C)c1C | 76 µM (inactive) | > 100 µM (inactive) | > 100 µM (inactive) | 91.6 µM (inactive) | 52.4 µM (inactive) | > 100 µM (inactive) | > 100 µM (inactive) | 41.7 µM (inactive) | > 100 µM (inactive) | 59.2 µM (inactive) | 67.8 µM (inactive) | 40 µM (inactive) |  | > 100 µM (inactive) | 52.1 µM (inactive) | 63.8 µM | 61.5 µM (inactive) | > 100 µM (inactive) |
| CC(=O)C=C1Nc2ccccc2N1 | > 100 µM (inactive) | > 100 µM (inactive) | > 100 µM (inactive) | > 100 µM (inactive) | > 100 µM (inactive) | > 100 µM (inactive) | > 100 µM (inactive) | > 100 µM (inactive) | > 100 µM (inactive) | > 100 µM (inactive) | > 100 µM (inactive) | > 100 µM (inactive) | > 100 µM (inactive) | > 100 µM (inactive) | > 100 µM (inactive) | > 100 µM | > 100 µM (inactive) | > 100 µM (inactive) |
| CCCN/C(N)=N/C#N | > 100 µM (inactive) |  | > 100 µM (inactive) | 76.6 µM (inactive) | 44.2 µM (inactive) | > 100 µM (inactive) | 46.7 µM (inactive) | > 100 µM (inactive) | > 100 µM (inactive) | > 100 µM (inactive) | 66.8 µM (inactive) | 30.8 µM (inactive) | 25.1 µM (inactive) | 77.6 µM (inactive) | > 100 µM (inactive) | 19.4 µM |  | 18 µM (inactive) |
| CC(=O)c1ccc(NC(=O)COC(=O)c2cccc3c(=O)c4ccccc4[nH]c23)cc1 | 72.6 µM (inactive) | 13.4 µM (inactive) | 45.4 µM (inactive) | 21.9 µM (inactive) | 20.5 µM (inactive) | 22.5 µM (inactive) | 15.5 µM (inactive) | > 100 µM (inactive) | > 100 µM (inactive) | 12.9 µM (inactive) | 54 µM (inactive) | 45.5 µM (inactive) | > 100 µM (inactive) | 25.5 µM (inactive) | 29.4 µM (inactive) |  | > 100 µM (inactive) | 33.6 µM (inactive) |
| CC12CC[C@H](O)C(C)(C)[C@H]1CC[C@](C)(O)C2COc1ccc2ccc(=O)oc2c1 (stereo partly drawn) | > 100 µM (inactive) | > 100 µM (inactive) | 81.7 µM (inactive) | > 100 µM (inactive) | > 100 µM (inactive) | > 100 µM (inactive) | > 100 µM (inactive) | 80.9 µM (inactive) |  | > 100 µM (inactive) | > 100 µM (inactive) | > 100 µM (inactive) | > 100 µM (inactive) | > 100 µM (inactive) |  | > 100 µM | > 100 µM (inactive) | > 100 µM (inactive) |
| Cc1ccc2[nH]c(Sc3c([N+](=O)[O-])ncn3C)nc2c1 |  | 34.3 µM (inactive) | 30.5 µM (inactive) | > 10 µM (inactive) | 31.5 µM (inactive) | > 100 µM (inactive) | 22.9 µM (inactive) | 13.9 µM (inactive) | 11.9 µM (inactive) | 67 µM (inactive) | 20.4 µM (inactive) | 29.6 µM (inactive) | 12.3 µM (inactive) | 18.5 µM (inactive) | 17.1 µM (inactive) | 13.8 µM |  | 13.3 µM (inactive) |
